Source: patent publication US20030195246A1, “Seamless soft capsule preparations containing dihydrobenzofuran derivatives” (priority 2000, published 2003)

Test: BO-653 stability test in different fats and oils (accelerated test, HPLC residue rate)
Type: physicochemical
Conditions: 80° C. for 17 hours
Protocol: A test was conducted on the effect of oxygen on decomposition of BO-653 (4,6-ditert-butyl-2,2-di-n-pentyl-5-hydroxy-2,3-dihydrobenzofuran) and its stability in various fats and oils. There were prepared samples consisting of 70 mg solutions of BO-653 in different fats and oils (soybean oil (product of Wako Pure Chemicals Industries, Ltd.), olive oil (product of Wako Pure Chemicals Industries, Ltd.), MCT (ODO-C: product of The Nisshin oil Mills, Ltd.), tricaprilin (product of Wako Pure Chemicals Industries, Ltd.) and linoleic acid (product of NOF Corp.)), each in a proportion of 50 wt % in a 5 cc glass vial, as well as a sample of 35 mg BO-653 in a 5 cc glass vial. An accelerated test was conducted at 80° C. for 17 hours, in a case with sealing of the head space of each sample vial after argon substitution and a case with sealing without argon substitution, and the residue rate was determined by HPLC measurement of the BO-653 content after the test.

## CCCCCC1(CCCCC)Cc2c(cc(C(C)(C)C)c(O)c2C(C)(C)C)O1 [BO-653, 4,6-ditert-butyl-2,2-di-n-pentyl-5-hydroxy-2,3-dihydrobenzofuran]
No argon substitution (presence of oxygen), 50 wt % in soybean oil, compared with other fats and oils
  stability of BO-653: highest stability
No argon substitution (presence of oxygen), all of the samples
  residue rate: lower with no argon substitution than with argon substitution
With argon substitution (absence of oxygen), any of the media, including BO-653 alone
  residue rate: virtually no reduction in residue rate
